From US11124523B2, “2,6-dioxaspiro [4,5] decane derivatives and preparation method therefor and pharmaceutical applications thereof” (SHANDONG LUYE PHARMACEUTICAL CO., LTD., priority 2017, dated 2021)
Where a name gives a salt, the structure may show the parent alone.

Key:
[1] = target: T1, human μ-subtype opioid receptor (hMOR) (Homo sapiens (Human), UniProt P35372); experiment: MOR β-arrestin-2 agonist activity test; type: cell-based; settings: for EC50: >30000 nM = greater than the highest detection concentration, read-out: MOR β-arrestin-2 EC50; for Emax: maximum effect of enkephalin DAMGO was 100%, about 0% = no actual agonist activity
Description: Test 2: β-Arrestin-2 Agonist Activity Test
2.1 Experimental Purpose: To test the β-arrestin-2 agonist activity of the compounds of the present disclosure on the human μ-subtype opioid receptor (hMOR).
a. All samples were dissolved in DMSO to a storage concentration of 10 mM.
(§1) b. A series of diluted samples were formulated on a 384-well LDV plate. A total of 11 concentration points were obtained by 3.162-fold gradient dilution.
c. The series of diluted samples were transferred to an experimental plate by using an Echo machine, wherein 60 nL of the compound was transferred corresponding to each well.
d. 60 nL of 3.33 mM DAMGO (as HPE) and 60 nL of DMSO (as ZPE) were transferred to the corresponding positions on the experimental plate by using the Echo machine.
The experiment was performed using PathHunter Detection Kit from DiscoveRX Cooperation (DiscoveRX #93-0213C3)
a. Assay buffer and PathHunter detection reagent required for the experiment were formulated.
Assay Buffer: 1×DPBS buffer
PathHunter Detection Reagent: The kit was provided therein with three constituents.
c. The experimental plate was centrifuged at 300 rpm for 30 s and incubated at room temperature for 2 hours.
d. 6 μL of the PathHunter detection reagent was added to each well of the experimental plate.
e. The experimental plate was centrifuged at 300 rpm for 30 seconds, then left at room temperature for 60 minutes, and then read on the Envision.

[2] = target: T1, human μ-subtype opioid receptor (hMOR); experiment: MOR cAMP agonist activity test; type: cell-based; settings: for Emax: maximum effect of enkephalin DAMGO was 100%
Description: Test 1: MOR cAMP Agonist Activity Test
1.1 Experimental Purpose: To test the cAMP agonist activity of the compounds of the present disclosure on the human μ-subtype opioid receptor (hMOR).
a. Compound samples were dissolved in DMSO to a storage concentration of 10 mM.
as §1
c. The series of diluted samples were transferred to an experimental plate (Corning-3824) by using an Echo machine, wherein 30 nL was transferred corresponding to each well.
The experiment was performed using a cAMP detection kit from Cisbio (Cisbio #62AM4PEJ).
a. Assay buffer and stimulation buffer (STB) required for the experiment were formulated.
Stimulation Buffer: formulated with the assay buffer, containing 5 μM NKH477 (CAS: 138605-00-2) and 200 μM IBMX (3-isobutyl-1-methylxanthine)
b. […] The number of cells in the well was 10,000 cells/well.
c. The experimental plate was placed in a 37° C. constant-temperature incubator for incubation. The incubation was performed for 40 minutes.
d. A cAMP standard concentration curve was prepared. The first concentration point was at 2848 nM, and a total of sixteen detection concentrations were obtained by 4-fold gradient dilution. There were three replicates for each concentration point.
e. The cAMP detection kit from Cisbio was provided therein with a d2-labeled cAMP reagent (d2 reagent) and an Eu-labeled cAMP antibody reagent (Crypate reagent). The above two reagents were formulated according to the kit instructions, and then added to the sample experimental plate and to the cAMP standard concentration experimental plate, respectively. It was necessary to add 5 μL of the d2 reagent and then 5 μL of the Cryptate reagent to each well.
f. After the experimental plates were left at room temperature for 60 minutes, the experimental plates were read on the Envision.

CYP2D6 = CYP2D6 (Homo sapiens (Human), UniProt P10635); experiment: Inhibition of cytochrome P450 isoenzymes, CYP2D6; type: in vitro ADME; settings: read-out: CYP 2D6 IC50
Description: (§2) 4.1 Experimental Purpose: To test the inhibitory effects of the compounds of the present disclosure on different isoforms of human cytochrome P450 isoenzymes
(§3) 1) The activities of CYP1A2, 2C9, 2C19, 2D6, and 3A4 were measured using a standard substrate method. In each reaction, the enzyme activities were measured in the presence and absence of the substance to be tested, wherein a single sample was measured at a total of eight test concentrations. A 5-in-1 mixed inhibitor was used.
(§4) 2) An incubation matrix comprising microsomes, a substrate, and an inhibitor or the compound to be tested was pre-incubated at 37° C. for 5 minutes, and then NADPH was added to start the reaction.
(§5) 3) After the incubation, acetonitrile with an internal standard was added to stop the reaction.
(§6) 4) Metabolites generated by the substrates were measured by using the LC-MS/MS method, and the peak area ratio of each metabolite to the internal standard was evaluated and the inhibition rate and IC50 were calculated.

CYP2C19 = CYP2C19 (Homo sapiens (Human), UniProt P33261); experiment: Inhibition of cytochrome P450 isoenzymes, CYP2C19; type: in vitro ADME; settings: >50 μM: inhibitory effect less than 50% at 50 μM; read-out: CYP 2C19 IC50
Description: as §2, §3, §4, §5, §6

[3] = Metabolic stability in liver microsomes; type: in vitro ADME; settings: pH 7.4; human liver microsomes 0.5 mg protein/mL; 45 mg microsome protein/g liver, 20 g liver/kg; read-out: Intrinsic Clearance CLint(liver) in Human Liver
Description: Test 3: Metabolic Stability in Liver Microsomes
3.1 Experimental Purpose: To test the metabolic stability of the compounds of the present disclosure in human liver microsomes
a. All samples as well as testosterone, diclofenac and propafenone acting as reference substances were dissolved in DMSO to a storage concentration of 10 mM.
b. Intermediate Solution: 5 μL of the substance to be tested or the reference substance was diluted with 45 μL of DMSO (with 450 μL of 1:1 methanol/water).
c. Working Solution: the intermediate solution was diluted with 450 μL of 100 mM potassium phosphate buffer solution (pH 7.4).
Assay Buffer: 100 mM potassium phosphate buffer (pH 7.4) • 10 mM MgCl2
Liver Microsome Solution (final concentration: 0.5 mg protein/mL):
Human liver microsomes, obtained from BD, Cat No. 452117, Lot No. 38291
b. 10 μL of the working solution containing the substance to be tested or the reference substance was added to each of plates (T0, T5, T10, T20, T30, T60, NCF60).
c. The liver microsome solution was dispensed into a 96-well plate in an amount of 680 μL/well, then 80 was added, and then T was added to each of the plates. The above incubation plate was placed at 37° C. and pre-incubated for approximately 10 minutes.
d. 10 μL of 100 mM potassium phosphate buffer was added to each well in the NCF60 plate.
e. After the pre-incubation was finished, the NADPH regeneration system working solution was dispensed into the 96-well plate in an amount of 90 μL/well, and then added to each of the plates in an amount of 10 μL/well to start the reaction.
f. The plates were incubated for an appropriate time (e.g., 5, 10, 20, 30, or 60 minutes).
g. The stop solution (refrigerated at 4° C., containing 100 ng/mL Tolbutamide and 100 ng/mL Labetalol) was added to each sample well in an amount of 300 μL/well.
h. The sample plates were shaken well for about 10 minutes and centrifuged at 4,000 rpm for 20 minutes at 4° C. During the centrifugation, 300 μL of HPLC water was added to each well, and 100 μL of the supernatant was taken for LC-MS/MS analysis.
T1/2 and Clint(mic) were calculated by the following formula: […]
Each gram of liver contained 45 mg of microsome protein, and the liver weight was 20 g/kg in a human.
Ct was the concentration at time t, t was the incubation time, C0 was the concentration at time 0, Ke was an elimination rate constant, Clint(mic) was the intrinsic clearance in liver microsomes, and Clint(liver) was the intrinsic clearance in liver. CLint(mic)=0.693/half-life/mg of microsome protein per mL(concentration of microsomes during incubation) CLint(liver)=CLint(mic)×mg of microsome protein/g of liver weight×a ratio of liver weight to body weight 3.4 Test Results

CYP3A4 = CYP3A4 (Homo sapiens (Human), UniProt P08684); experiment: Inhibition of cytochrome P450 isoenzymes, CYP3A4; type: in vitro ADME; settings: >50 μM: inhibitory effect less than 50% at 50 μM; read-out: CYP 3A4 IC50
Description: as §2, §3, §4, §5, §6

CYP2C9 = CYP2C9 (Homo sapiens (Human), UniProt P11712); experiment: Inhibition of cytochrome P450 isoenzymes, CYP2C9; type: in vitro ADME; settings: >50 μM: inhibitory effect less than 50% at 50 μM; read-out: CYP 2C9 IC50
Description: as §2, §3, §4, §5, §6

hERG potassium channels = hERG potassium channels (Homo sapiens (Human), UniProt Q12809); experiment: Effects on hERG potassium channels (Qpatch, CHO-hERG cells); type: cell-based; settings: highest test concentration 40 μM, read-out: IC50 representing the blocking effects of hERG potassium currents
Description: 5.1 Experimental Purpose: To test the blocking effects of the compounds of the present disclosure on hERG potassium currents.
a. CHO-hERG cells were cultured in a 175 cm^2 culture flask. When the cells were grown to a density of 60 to 80%, the culture solution was removed, and the cells were washed once with 7 mL of PBS (phosphate buffer solution), and then 3 mL of a cell digestion solution (Detachin) was added for digestion of the cells.
b. After completely digested, the cells were neutralized by adding 7 mL of the culture solution and then centrifuged, the supernatant was removed, and then 5 mL of the culture solution was added for resuspension to ensure a cell density of 2 to 5×10^6 cells/mL.
The single-cell high-impedance sealing and whole-cell pattern formation processes were both carried out automatically by the Qpatch instrument. After the whole-cell recording pattern was obtained, the cells were clamped at −80 millivolts. A preceding voltage of −50 millivolts was applied for 50 milliseconds prior to application of a depolarizing stimulus of +40 millivolts for 5 seconds, and then the cells were repolarized to −50 millivolts and maintained for 5 seconds and then returned back to −80 millivolts. This voltage stimulation was applied every 15 seconds, and data were recorded for 2 minutes, and thereafter the extracellular fluid was administered and data were recorded for 5 minutes, and then the administration process was started. The compound was administered for 2.5 minutes at each test concentration from the lowest test concentration. After all the concentrations of the compound were administered, […] of Cisapride was administered as a positive comparative compound. At least three cells (n>3) were tested for each concentration.
a. A 20 mM compound mother solution was diluted with the extracellular fluid, wherein 5 μL of the 20 mM compound mother solution was taken and diluted 500 times to 40 μM by adding 2495 μL of the extracellular fluid thereto, and then 3-fold serial dilutions were performed sequentially in the extracellular fluid containing 0.2% DMSO to obtain a final concentration to be tested.
b. The highest test concentration was 40 μM, and there were six concentrations in total, i.e., 40, 13.33, 4.44, 1.48, 0.49, and 0.16 μM, respectively.
c. The DMSO content in the final test concentration was not more than 0.2%. This concentration of DMSO had no effect on the hERG potassium channel.
The experimental data were analyzed by XLFit software.

CYP2C19, sequence (P33261 whole entry): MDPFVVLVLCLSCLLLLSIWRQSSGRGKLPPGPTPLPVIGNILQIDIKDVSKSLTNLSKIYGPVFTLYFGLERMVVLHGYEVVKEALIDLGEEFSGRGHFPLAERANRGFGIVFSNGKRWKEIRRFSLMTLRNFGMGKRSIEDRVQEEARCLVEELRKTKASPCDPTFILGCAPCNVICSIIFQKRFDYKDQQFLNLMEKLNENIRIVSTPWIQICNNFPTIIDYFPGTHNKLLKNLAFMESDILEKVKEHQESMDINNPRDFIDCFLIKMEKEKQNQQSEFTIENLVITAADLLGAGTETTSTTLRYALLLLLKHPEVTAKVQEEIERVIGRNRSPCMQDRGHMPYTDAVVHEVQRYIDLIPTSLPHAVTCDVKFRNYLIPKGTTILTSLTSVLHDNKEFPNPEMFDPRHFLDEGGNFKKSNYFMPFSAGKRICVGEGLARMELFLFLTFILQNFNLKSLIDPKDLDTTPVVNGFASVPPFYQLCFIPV
CYP3A4, sequence (P08684 whole entry): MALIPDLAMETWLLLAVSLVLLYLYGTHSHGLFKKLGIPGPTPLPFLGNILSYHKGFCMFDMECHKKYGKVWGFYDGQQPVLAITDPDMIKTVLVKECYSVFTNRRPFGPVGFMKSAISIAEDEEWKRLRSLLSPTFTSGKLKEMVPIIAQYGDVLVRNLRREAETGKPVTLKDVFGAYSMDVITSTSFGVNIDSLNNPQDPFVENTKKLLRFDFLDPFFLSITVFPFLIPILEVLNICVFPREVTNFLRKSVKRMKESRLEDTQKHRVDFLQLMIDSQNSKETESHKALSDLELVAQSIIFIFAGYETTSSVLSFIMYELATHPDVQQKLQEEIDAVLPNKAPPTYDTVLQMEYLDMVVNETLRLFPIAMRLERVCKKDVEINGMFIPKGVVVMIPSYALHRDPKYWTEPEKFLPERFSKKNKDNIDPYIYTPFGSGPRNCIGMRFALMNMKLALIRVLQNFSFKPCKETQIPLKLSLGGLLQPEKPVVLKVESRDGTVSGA
CYP2D6, sequence (P10635 whole entry, canonical isoform): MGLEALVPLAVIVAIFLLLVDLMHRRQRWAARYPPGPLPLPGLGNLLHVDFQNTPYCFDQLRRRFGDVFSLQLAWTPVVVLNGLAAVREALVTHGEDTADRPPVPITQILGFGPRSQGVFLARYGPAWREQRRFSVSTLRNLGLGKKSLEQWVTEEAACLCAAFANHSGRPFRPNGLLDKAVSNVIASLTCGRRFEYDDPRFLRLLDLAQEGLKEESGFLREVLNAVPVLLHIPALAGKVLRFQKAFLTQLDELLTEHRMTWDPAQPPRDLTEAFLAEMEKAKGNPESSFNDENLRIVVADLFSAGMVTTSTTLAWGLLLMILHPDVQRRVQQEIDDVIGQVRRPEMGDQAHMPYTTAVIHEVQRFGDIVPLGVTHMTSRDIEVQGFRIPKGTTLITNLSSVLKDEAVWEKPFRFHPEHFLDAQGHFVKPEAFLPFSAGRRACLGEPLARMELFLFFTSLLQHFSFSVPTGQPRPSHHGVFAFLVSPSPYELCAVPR
CYP2C9, sequence (P11712 whole entry): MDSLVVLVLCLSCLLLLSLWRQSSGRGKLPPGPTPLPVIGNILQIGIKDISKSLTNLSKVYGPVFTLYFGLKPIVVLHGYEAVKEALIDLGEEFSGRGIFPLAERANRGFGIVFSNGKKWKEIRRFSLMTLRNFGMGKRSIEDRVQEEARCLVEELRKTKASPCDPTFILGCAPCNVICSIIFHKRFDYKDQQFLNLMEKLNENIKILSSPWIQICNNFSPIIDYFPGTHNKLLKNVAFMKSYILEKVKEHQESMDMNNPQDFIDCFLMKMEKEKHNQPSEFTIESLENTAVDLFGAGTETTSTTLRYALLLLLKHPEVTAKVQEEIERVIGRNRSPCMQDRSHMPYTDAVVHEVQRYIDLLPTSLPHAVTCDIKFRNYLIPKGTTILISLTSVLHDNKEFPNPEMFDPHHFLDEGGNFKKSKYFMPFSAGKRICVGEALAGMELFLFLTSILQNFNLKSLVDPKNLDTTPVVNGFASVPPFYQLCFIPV
hERG potassium channels, sequence (Q12809 whole entry): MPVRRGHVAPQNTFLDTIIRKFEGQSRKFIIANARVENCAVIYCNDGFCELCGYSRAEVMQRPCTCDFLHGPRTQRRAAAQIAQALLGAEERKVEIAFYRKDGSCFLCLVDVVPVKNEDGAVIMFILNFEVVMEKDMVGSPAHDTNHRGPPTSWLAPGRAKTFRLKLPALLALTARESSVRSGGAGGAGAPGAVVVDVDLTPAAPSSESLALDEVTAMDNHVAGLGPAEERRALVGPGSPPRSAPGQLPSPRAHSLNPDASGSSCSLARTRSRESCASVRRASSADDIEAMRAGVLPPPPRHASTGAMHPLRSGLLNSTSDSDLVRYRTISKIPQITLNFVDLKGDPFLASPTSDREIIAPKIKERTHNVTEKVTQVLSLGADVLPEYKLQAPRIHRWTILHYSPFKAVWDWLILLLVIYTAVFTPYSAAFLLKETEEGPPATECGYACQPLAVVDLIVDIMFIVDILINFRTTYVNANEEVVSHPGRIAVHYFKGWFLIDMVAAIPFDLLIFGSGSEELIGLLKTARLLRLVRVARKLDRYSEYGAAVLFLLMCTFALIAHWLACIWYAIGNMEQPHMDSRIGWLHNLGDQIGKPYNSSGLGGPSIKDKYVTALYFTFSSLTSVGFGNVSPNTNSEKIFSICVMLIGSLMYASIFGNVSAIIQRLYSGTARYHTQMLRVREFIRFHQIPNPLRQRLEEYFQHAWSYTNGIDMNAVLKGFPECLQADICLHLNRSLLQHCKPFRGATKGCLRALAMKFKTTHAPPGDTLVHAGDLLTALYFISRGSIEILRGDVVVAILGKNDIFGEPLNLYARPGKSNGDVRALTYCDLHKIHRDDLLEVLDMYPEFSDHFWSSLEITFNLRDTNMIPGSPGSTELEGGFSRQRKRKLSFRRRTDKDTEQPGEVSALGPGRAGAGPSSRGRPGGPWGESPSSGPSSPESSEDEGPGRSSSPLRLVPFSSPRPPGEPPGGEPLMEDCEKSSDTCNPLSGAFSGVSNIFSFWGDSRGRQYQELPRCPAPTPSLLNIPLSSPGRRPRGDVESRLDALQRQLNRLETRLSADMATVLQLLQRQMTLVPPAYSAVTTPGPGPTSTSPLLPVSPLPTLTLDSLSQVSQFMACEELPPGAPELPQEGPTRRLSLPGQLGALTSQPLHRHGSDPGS

Structure (SMILES)	EC50 [1]	Emax [1]	EC50 [2]	Emax [2]	IC50 (CYP2D6)	IC50 (CYP2C19)	CLint scaled [3]	IC50 (CYP3A4)	IC50 (CYP2C9)	IC50 (hERG potassium channels)
Clc1cccc(CNCC[C@@]2(c3ccccn3)CCO[C@]3(CCOC3)C2)c1 [(+)-8]	> 30 µM	~0%	0.0018 µM	85.3%	17.3 µM	> 50 µM	10 mL/min/kg	> 50 µM	> 50 µM	
Cc1cccc(CNCC[C@@]2(c3ccccn3)CCO[C@]3(CCOC3)C2)c1 [(+)-9]	> 30 µM	~0%	0.0061 µM	88.9%	23.4 µM	> 50 µM	8.8 mL/min/kg	21.9 µM	> 50 µM	
Fc1cc(Cl)cc(CNCC[C@@]2(c3ccccn3)CCO[C@]3(CCOC3)C2)c1 [(+)-18]	> 30 µM	~0%	0.0042 µM	87.7%	24.5 µM	> 50 µM	84.9 mL/min/kg	> 50 µM	> 50 µM	
Fc1ccc([C@]2(CCNCc3cccc(Cl)c3)CCO[C@]3(CCOC3)C2)nc1 [Hydrochloride Salt of (+)-16]										22.8 µM
